Where “and” joins values, the source holds several entries; their conditions need not be identical. Identical values can stand only once. Like-named read-outs stand apart in the source and are kept apart here. Residues, ends and D or L forms follow the SMILES beside them. *: point of attachment. Cbz = O=C(OCc1ccccc1)*
How the values were obtained:
[1] = system: T. cruzi epimastigotes (strain Y); experiment: Growth of axenic cultures of T. cruzi epimastigotes; settings: for T. cruzi axenic culture EC50: epimastigotes; for EC50: Trypanosoma cruzi, read-out: T. cruzi axenic culture EC50, epimastigotes
Method: Selected cruzain inhibitors in axenic cell cultures of Trypanosoma brucei brucei (procyclic trypomastigotes; ATCC PRA-381) and Trypanosoma cruzi (epimastigote forms; strain Y, ATCC 50832GFP) were tested. T. b. brucei is grown in SDM-79 medium, and T. cruzi is grown in ATCC medium (1029 LIT medium). Both media included fetal calf serum (10%) and penicillin/streptomycin (50 U/mL). […] T. brucei and T. cruzi (5 mL in flask cultures) at 26° C. were seeded at ˜3×10^6 cells, and diluted daily maintaining a mid-log growth phase for up to 100 hrs. Cell counts were scored using a Z2 Coulter Counter. After each cell dilution, fresh compound or an equal volume of DMSO (control samples), was supplemented into the cultures. […] Cruzain inhibitors where the highest concentration reflects the upper limit of solubilities of the inhibitors in 1% (v/v) DMSO solutions were evaluated. These inhibitors are likely to bind to proteins in fetal calf serum, and for these reasons, fresh inhibitors were added each time cells were re-fed.
Selected cruzain inhibitors were evaluated in axenic cell cultures of T. b. brucei and T. cruzi. Procyclic trypomastigotes of T. b. brucei (ATCC PRA-381) were grown in the SDM-79 medium at 26° C., and bloodstream forms (ATCC PRA-383) were grown at 37° C. in the HMI-9 medium at 5% C02. T. cruzi (epimastigote forms, strain Y, ATCC 50832GFP) was grown in the ATCC medium (1029 LIT medium). Both forms of T. b. brucei and T. cruzi were grown in media containing 10% fetal bovine serum (FBS) and penicillin/streptomycin (50 U mL^−1). […] Control samples contained equal amounts of DMSO. T. b. brucei and T. cruzi (5 mL in flask cultures) were seeded at ˜3×10^6 cells and diluted daily, maintaining a mid-log growth phase for up to 120 h. […] After each cell dilution, fresh compound or an equal volume of DMSO (control samples) was supplemented into the cultures, while maintaining a constant concentration of each inhibitor. Cell counts were scored using a Z2 Coulter Counter.

[2] = system: T. b. brucei procyclic forms; experiment: Growth of axenic cultures of T. b. brucei procyclic forms (PCFs); type: cell-based, Trypanosoma brucei brucei; settings: for EC50: axenic culture, read-out: EC50 T. b. brucei PCF
[3] = Thiolation of inhibitors with glutathione, LCMS; type: physicochemical; settings: 5 mM glutathione, 0.5 mM compound, Tris pH 8.0, 10% DMSO
Method: Samples were analyzed by HPLC-MS (as described above) by injecting 0.01 mL aliquots onto a Luna […] C18(2) 100 Å, 4.6 mm, 50 mm column (Phenomenex) using the HPLC method described in the chemistry section at 0-6 h time points. […] Integration of the chromatographic peaks of the inhibitors and their GSH adducts at each time point was used to determine the rate of GSH adduct formation.

[4] = molecular target: cruzain (Trypanosoma cruzi, UniProt P25779); experiment: biochemical; settings: for Ki: pH 7.5
Sequence of cruzain (P25779 123-467 limits assumed): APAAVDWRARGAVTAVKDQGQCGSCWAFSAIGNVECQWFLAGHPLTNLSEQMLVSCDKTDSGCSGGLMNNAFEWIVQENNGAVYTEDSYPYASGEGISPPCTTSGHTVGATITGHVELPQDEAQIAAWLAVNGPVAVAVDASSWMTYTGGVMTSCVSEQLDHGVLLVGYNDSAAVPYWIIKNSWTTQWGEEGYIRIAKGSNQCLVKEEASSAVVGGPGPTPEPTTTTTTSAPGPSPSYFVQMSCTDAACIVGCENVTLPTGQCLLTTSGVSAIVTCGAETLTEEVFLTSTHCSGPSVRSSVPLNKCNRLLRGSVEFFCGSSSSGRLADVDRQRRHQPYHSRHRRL
Method: All enzyme assays were performed at 25° C. Initial rates of the peptidolytic reaction catalyzed by cruzain were measured by monitoring the fluorescence generated by cleavage of the dipeptide-AMC bond. Assays were conducted in 96-well plates (Greiner; flat-bottom, clear black plates) in a total volume of 250 μL, containing either 50 mM MES (pH 7.5), 50 mM TAPSO, 100 mM DEA, 1 mM CHAPS, 1 mM Na2EDTA, 5 mM DTT, and 10% DMSO (v/v) or 50 mM sodium acetate (pH 5.5), 50 mM MES, 100 mM TEA, 1 mM CHAPS, 1 mM Na2EDTA, 5 mM DTT, and 10% DMSO (v/v). Substrates were dissolved in 100% DMSO and were then diluted 10-fold such that when added to reaction mixtures, final DMSO concentration was 10% (v/v). […] Fluorescence was measured on either a SpectraMax M5 (Molecular Devices) or a Synergy HTX (BioTek, Winooski, VT) microplate reader (λex=360 nm, λem=460 nm). Initial rates were determined from continuous kinetic time courses and calculated from the earliest time points, typically at less than 10 min.
(2) Enzyme and compound were preincubated over extended periods of time, and then aliquots were removed and diluted 50-fold to 100-fold into reaction mixtures containing 10 μM Cbz-Phe-Arg-AMC, followed by the assessment of the resulting time courses.
Data for time-dependent inhibition were fitted by several methods.
Values of kobs versus [inhibitor] were then replotted and fitted to eq 4 for which k3 and k4 represent the respective rates of formation and dissolution of the EI* complex as depicted in FIG. 9.
In addition, time-course data were fitted globally by two methods. First, expressions for vs, vi, and kobs were substituted into eq 3 to generate eq 6, which was used to fit time-course data at all concentrations of inhibitors simultaneously. Second, time-course data were fitted using KinTek Explorer as either a single-binding step model with the two kinetic parameters k3/Ki and k4 or a two-step binding mechanism as shown in FIG. 9 from which rate constants k1-k4 are determined (Supporting Information).
Enzyme Assays. The preparation of cruzain and 3CL^pro were described in previous publications.^8, 34 The evaluation of inhibitors was modified from our lab protocol and described briefly as follows.^35 All enzyme assays were conducted in 96-well, clear bottom, black plates at 25° C., and fluorescence emanating from product formation was measured using either a SpectraMax M5 (Molecular Devices) or a Synergy HTX (Biotek) microplate reader, with excitation at λex=360 nm and emission at λem=460 nm. […] Reactions were started with addition of enzyme (typically, to a final concentration of 0.2 nM for cruzain or 40 nM for 3CL^pro), and the time courses were recorded for 0.5-1 h.
Kinetic Data Analysis. All time-course data were fitted to eq. 1, wherein P is the fluorescence generated by formation of AMC or liberated ACC, C is the background constant, vi and vs are respectively initial-state and steady-state reaction rates, t is time, and kobs is the observed rate of conversion of the initial inhibited rate to the final inhibited rate.^46
Overall inhibition constants (Ki* values) were obtained by fitting vs/v0 to eq. 4, wherein vs and v0 are steady-state reaction rates in the presence and absence of inhibitor respectively, [S] and [I] represent the fixed concentration of substrate and variable inhibitor, Km is the Michaelis constant of the substrate.

[5] = system: human dermal fibroblasts; experiment: Human cell toxicity, resazurin viability; type: cell-based; settings: human dermal fibroblasts; read-out: Human Cell Cytotoxicity CC50
Method: Primary human dermal fibroblast (HDF) cells were used to evaluate human cell toxicity of cruzain inhibitors. HDF cells were plated in a 384-well plate at 2400 cells per well (62,000 cells mL^−1). Inhibitors in 100% DMSO were added in duplicate to final concentrations of 0.001-0.1 mM and 1% DMSO (v/v) with 1% DMSO as a control sample, and cells were cultured at 37° C. for 48 h, followed by the addition of resazurin. Cell viability was then assessed by reading of fluorescence (excitation/emission: 544 nm/590 nm) after an additional 24 h of incubation.

[6] = molecular target: human cathepsin L (Homo sapiens (Human), UniProt P07711); experiment: Human cathepsin L inhibition, Z-FR-AMC assay; type: biochemical; settings: pH 5.5, 25° C.; read-out: Ki* hCatL
Sequence of human cathepsin L (P07711 114-333): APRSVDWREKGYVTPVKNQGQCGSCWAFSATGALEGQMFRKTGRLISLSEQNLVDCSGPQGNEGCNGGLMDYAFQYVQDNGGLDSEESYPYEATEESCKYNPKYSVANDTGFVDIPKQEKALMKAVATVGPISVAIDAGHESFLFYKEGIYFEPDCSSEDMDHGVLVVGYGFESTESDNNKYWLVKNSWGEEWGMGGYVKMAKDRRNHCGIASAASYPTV
Method: Recombinant human cathepsins B and L were purchased from Millipore Sigma and used without further treatment. The solid proteins were dissolved into a solution of 50 mM sodium acetate (pH 5.5), 1 mM EDTA, 1 mM CHAPS, 10% (v/v) DMSO, and 5 mM DTT to final concentrations of […] in 20-mL aliquots, and stored at −80° C. until needed. These samples were then diluted into the same buffer to concentrations of −100 nM, and these dilutions were stored at 4° C. and used daily until depletion.
For assays of cathepsin L and B, inhibitors were evaluated in 0.25-mL reaction mixtures containing a buffer of sodium acetate (pH 5.5), 1 mM CHAPS, 1 mM Na2EDTA, and 5 mM DTT at 25° C. The fluorogenic substrate Cbz-Phe-Arg-7-amino-4-methyl-coumarin (Z-FR-AMC) was dissolved in 100% DMSO, as were all inhibitors, and aliquots of both substrates and inhibitors were added to reaction mixtures to final concentrations of DMSO of 10% (v/v). […] Formation of the fluorescent product AMC was monitored over 30-60-minute time courses for reaction mixtures in 96-well black microplates (Corning Costar®). Rates of peptidolysis of the dipeptide-AMC substrate(s) were measured on either a SpectraMax M5 (Molecular Devices) or a Synergy HTX (Biotek, Wisnooki, VT) microplate reader with λex=360 nm, λem=460 nm in ≥8-sec intervals. Control samples excluded substrate. The measured relative fluorescence units (RFUs) of generated AMC were converted to reaction rates of μM/s by use of a standard curve of known AMC concentrations obtained for both plate readers.

[7] = system: T. cruzi (Ca-I/72) in C2C12 murine cardiomyoblasts; experiment: T. cruzi-infected murine cardiomyoblasts (C2C12); type: cell-based, Trypanosoma cruzi; settings: read-out: EC50 T. cruzi-infected cardiomyoblasts
Method: For the evaluation of the antitrypanocidal activity of cruzain inhibitors, we infected a C2C12 mouse cardiomyoblast cell line (ATCC CRL-1772) with T. cruzi strain Ca-I/72 (a gift from James Dvorak, National Institutes of Health) in […] plates. […] The plates were incubated at 37° C. for 48 h, and the wells were fixed with 2% paraformaldehyde in PBS and stained with 5 μg mL-1 4,6-diamidino-2-phenylindole. After at least 30 min of incubation at room temperature in the dark, the plates were read in an automated microscope, ImageXpress Micro XL (Molecular Devices), and the images were analyzed by custom-built software to quantify and assess viability of the parasites, as well as the host cells independently. The compilation of data was used to calculate the antiparasitic activity (EC50) and host cytotoxicity (CC50).
T. cruzi infection was evaluated in C2C12 murine cardiomyoblast cells. 384-microwell plates containing C2C12 murine cardiomyoblast cells were infected with 10^3 and 10^4 cells of T. cruzi (Ca-I/72), to which was added 3-fold serially-dilutions of inhibitor with maximal concentrations of 10 μM, followed by incubation at 37° C. for 2 days. The wells were fixed with 2% PFA in PBS, and stained by 5 μg/ml of DAPI. After >30 min of incubation in a dark environment, the plates were read on an ImageXpress MicroXL microscope (Molecular Devices). The images were analyzed to quantify parasites as well host cells.

[8] = system: T. b. brucei bloodstream forms; experiment: Growth of axenic cultures of T. b. brucei bloodstream forms (BSFs)
Method: Selected cruzain inhibitors were evaluated in axenic cell cultures of T. b. brucei and T. cruzi. Procyclic trypomastigotes of T. b. brucei (ATCC PRA-381) were grown in the SDM-79 medium at 26° C., and bloodstream forms (ATCC PRA-383) were grown at 37° C. in the HMI-9 medium at 5% C02. […] Both forms of T. b. brucei and T. cruzi were grown in media containing 10% fetal bovine serum (FBS) and penicillin/streptomycin (50 U mL^−1). […] Control samples contained equal amounts of DMSO. T. b. brucei and T. cruzi (5 mL in flask cultures) were seeded at ˜3×10^6 cells and diluted daily, maintaining a mid-log growth phase for up to 120 h. […] After each cell dilution, fresh compound or an equal volume of DMSO (control samples) was supplemented into the cultures, while maintaining a constant concentration of each inhibitor. Cell counts were scored using a Z2 Coulter Counter.
In vitro Cell Assays. Bloodstream form T. b. brucei strain SM427 was grown in HM1-9 medium that included fetal bovine serum (10%) and antibiotics (100 U/mL penicillin-streptomycin, Gibco™). Inhibitors dissolved in 100% (v/v) DMSO stock solutions were added at final concentrations of 0.5-20 μM (final concentrations of DMSO were <1% (v/v)). T. b. brucei were seeded at ˜1×10^6 cells at 37° C., and diluted daily to maintain a log phase of growth for up to 96 h. […] After each dilution, the cell cultures were supplemented with inhibitor or DMSO (control) to keep concentrations constant. Cell density was determined and graphed as previously reported.^36 Trypanosomes were quantified using a Z2 Coulter Counter, and values of EC50 were determined after 3-4 days of treatment by the interpolation method of Huber and Koella.^37

[9] = molecular target: SARS-CoV-2 3CL protease (Severe acute respiratory syndrome coronavirus 2 (2019-nCoV) (SARS-CoV-2), UniProt P0DTD1); experiment: biochemical; type: biochemical; settings: pH 7.5
[10] = system: SARS-CoV-2 in Vero E6 cells; experiment: Anti-CoV-2 activity in Vero E6 cells; type: cell-based
[11] = Host cell cytotoxicity in the T. cruzi infection model; type: cell-based, mouse; settings: mouse; host cardiomyoblasts; read-out: C2C12 Cytotoxicity CC50
Method: The plates were incubated at 37° C. for 48 h, and the wells were fixed with 2% paraformaldehyde in PBS and stained with 5 μg mL-1 4,6-diamidino-2-phenylindole. After at least 30 min of incubation at room temperature in the dark, the plates were read in an automated microscope, ImageXpress Micro XL (Molecular Devices), and the images were analyzed by custom-built software to quantify and assess viability of the parasites, as well as the host cells independently. The compilation of data was used to calculate the antiparasitic activity (EC50) and host cytotoxicity (CC50).
T. cruzi infection was evaluated in C2C12 murine cardiomyoblast cells. […] The wells were fixed with 2% PFA in PBS, and stained by 5 μg/ml of DAPI. After >30 min of incubation in a dark environment, the plates were read on an ImageXpress MicroXL microscope (Molecular Devices). The images were analyzed to quantify parasites as well host cells.

[12] = apparent tight-binding inhibition constant, 25° C., read-out: Ki*
[13] = apparent initial inhibition constant, 25° C., read-out: Ki
[14] = Trypanosoma cruzi, C2C12, C2C12 murine cardiomyoblasts

O=C(N[C@@H](Cc1ccccc1)C(=O)N[C@H](/C=C/c1cc(C(F)(F)F)ccn1)CCc1ccccc1)OCc1ccccc1 [Compound 17, Benzyl ((S)-1-Oxo-3-phenyl-1-(((S,E)-5-phenyl-1-(4-(trifluoromethyl)pyridin-2-yl)pent-1-en-3-yl)amino)propan-2-yl)-carbamate]
T. cruzi axenic culture EC50 [1]: poorly effective
inhibition at 20 µM ([2]; Trypanosoma brucei, at 20 μM, read-out: inhibition of cell growth): ≤ 50%
Rate of Thiolation, k [3]: Negligible
Ki [4, 12]: 0.57 ± 0.05 µM

O=C(N[C@@H](Cc1ccccc1)C(=O)N[C@H](/C=C/c1ncco1)Cc1ccccc1)OCc1ccccc1 [Compound 24, Benzyl ((S)-1-(((S,E)-4-(Oxazol-2-yl)-1-phenylbut-3-en-2-yl)-amino)-1-oxo-3-phenylpropan-2-yl)carbamate]
EC50 [1]: > 20 µM
T. cruzi axenic culture EC50 [1]: poorly effective
EC50 ([2]; Trypanosoma brucei): 27 ± 5 µM
CC50 [5]: > 100 µM
Ki [4, 13]: 10 ± 1 µM
Ki [4, 12]: 0.71 ± 0.01 µM

O=C[C@H](Cc1ccccc1)NC(=O)[C@H](Cc1ccccc1)NC(=O)OCc1ccccc1 [Compound 28] (Cbz-Phe-Phe-aldehyde)
Ki [6]: 0.00031 µM
EC50 ([7]; C2C12 murine cardiomyoblasts): 0.5 µM and 0.25 µM
EC50 ([8]; read-out: EC50 T. b. brucei BSF, axenic culture): 3 µM and 3.3 µM
EC50 [2]: 8 µM
k4 ([4]; conversion of EI* back to EI, from kobs replot or recovery after preincubation and dilution): (7.6±0.6)×10^−4 s^−1
Ki ([4]; obtained >10 minutes following initiation of reaction by addition of enzyme, read-out: Ki* Cruzain): 0.00044 µM
residence time τ ([4]; preincubation, dilution, recovery of cruzain activity): 52 min
Ki* 3CLpro [9]: not an inhibitor of 3CL protease
Ki ([9]; read-out: Ki* 3CLpro): > 10 µM
EC50 [10]: 0.5 µM

CN1CCN(C(=O)N[C@@H](Cc2ccccc2)C(=O)N[C@H](/C=C/c2ncccn2)CCc2ccccc2)CC1 [Compound 9, 4-Methyl-N—((S)-1-oxo-3-phenyl-1-(((S,E)-5-phenyl-1-(pyrimidin-2-yl)pent-1-en-3-yl)amino)propan-2-yl)piperazine-1-carboxamide]
EC50 [7, 14]: 5 to 8 µM
EC50 [1]: 20 µM
T. cruzi axenic culture EC50 [1]: poorly effective
EC50 ([8]; Trypanosoma brucei, read-out: EC50 T. b. brucei BSF, axenic culture): > 20 µM
Ki [4, 12]: 2.2 ± 0.1 µM
CC50 at 48 h [11]: > 10 µM

C[C@@H](/C=C/c1ncccn1)NC(=O)[C@H](Cc1ccccc1)NC(=O)OCc1ccccc1 [Compound 10, Benzyl ((S)-1-Oxo-3-phenyl-1-(((S,E)-4-(pyrimidin-2-yl)but-3-en-2-yl)amino)propan-2-yl)carbamate]
EC50 [7, 14]: 5 to 8 µM
Ki [4, 13]: 58 µM
Ki ([4]; apparent tight-binding inhibition constant, 25° C.): 0.28 µM
Ki [4, 12]: 25 ± 1 µM
CC50 at 48 h [11]: > 10 µM

Reference: patent US20240150396A1 (The Texas A&M University System, priority 2021, published 2024)
